Results: PMC11714206, “Massively Parallel Screening of Toll/Interleukin‐1 Receptor (TIR)‐Derived Peptides Reveals Multiple Toll‐Like Receptors (TLRs)‐Targeting Immunomodulatory Peptides” (Advanced Science, 2024)

Biological target: T1, MAL^TIR (Homo sapiens, UniProt P58753)
T1 construct: MAL (residues 79–221); 6xHis; made in house; host or cells: E. coli BL21 (DE3)
Experiment: T‐Surf phage library (P8 and P3) selection against MAL^TIR, four rounds, NGS read counts
Format: binding
Details: for P8_MAL Rank (after) / P8_MAL Rank (before): P8 library; for P3_MAL Rank (after) / P3_MAL Rank (before): P3 library; for Population: 4th round of selection against MAL TIR, share of NGS reads
Method in brief: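 Read counts come from NGS of phage pools enriched over four selection rounds on the plate‐coated TIR domain (5 µg mL^−1). Each round: 1 h phage binding at room temperature after 0.2% BSA blocking, Tween washes, acid elution, amplification in E. coli TG1 with M13KO7 helper.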

[1] = selection against MAL TIR, rank by count after grouping
[2] = selection against MAL TIR, rank by count before grouping
[3] = selection against MAL, rank by count after grouping
[4] = selection against MAL, rank by count before grouping
[5] = P8_MAL: rank by count after grouping
[6] = P8_MAL: rank by count before grouping
[7] = selection against MAL, rank after grouping
[8] = selection against MAL, rank before grouping
[9] = P3_MAL pool: P3 T-Surf phage library
[10] = 4R selection against MAL, rank after grouping
[11] = 4R selection against MAL, rank before grouping
[12] = P8_MAL pool: P8 T-Surf phage library
[13] = P3_MAL: rank by count after grouping
[14] = P3_MAL: rank by count before grouping

T1 sequence (P58753 79-221): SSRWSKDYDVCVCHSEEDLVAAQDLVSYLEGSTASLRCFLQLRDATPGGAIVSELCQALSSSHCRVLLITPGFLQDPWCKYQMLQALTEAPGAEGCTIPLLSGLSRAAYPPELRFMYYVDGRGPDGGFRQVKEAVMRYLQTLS

DTKLKKCESIAPELLL
P8_MAL Rank (after) [1]: 204 | P8_MAL Rank (before) [2]: 2014

FAFTGQMLRYMVRSGL
P3_MAL Rank (after) [3]: 717 | P3_MAL Rank (before) [4]: 1132

AFLYDFLINLTHQTNF
Rank (after) [5]: 159 | Rank (before) [6]: 1814

VEPTQGRKQLGAVENA
P3_MAL Rank (after) [7]: 573 | P3_MAL Rank (before) [8]: 1683

KEVEGWRDALAKVASP
P3_MAL Rank (after) [7]: 576 | P3_MAL Rank (before) [8]: 3557

RGFLSKLSQHILKREK
P3_MAL Rank (after) [1]: 283 | P3_MAL Rank (before) [2]: 894

ARLPAICIVIWCSVAX
Population [9]: 0.00376%

KTLAGLRCDHLFRLRL
P3_MAL Rank (after) [10]: 639 | P3_MAL Rank (before) [11]: 3743

RGFLSHLRQHLKAKDH
P3_MAL Rank (after) [7]: 497 | P3_MAL Rank (before) [8]: 2386

WFYERLVSLILRYTKV
Population [12]: 0.00309%

YAFTGPPHRYMVQRGV
Rank (after) [13]: 460 | Rank (before) [14]: 1354

YFLHFLLFNRPETNYI
P8_MAL Rank (after) [10]: 597 | P8_MAL Rank (before) [11]: 1467

ESILTKLRRSSQSIAN
P3_MAL Rank (after) [10]: 597 | P3_MAL Rank (before) [11]: 2045

DTALTNSGFHIFRDNE
P3_MAL Rank (after) [3]: 689 | P3_MAL Rank (before) [4]: 1984

PFFWAQLKSLLRNPTS
P8_MAL Rank (after) [7]: 574 | P8_MAL Rank (before) [8]: 2320

AFFWAQLKSVLGNRTM
Population [12]: 0.00309%

RLLKWWDSLTQASNI
P3_MAL Rank (after) [3]: 727 | P3_MAL Rank (before) [4]: 2485

DQCRNALTAAANLSGW
P3_MAL Rank (after) [1]: 201 | P3_MAL Rank (before) [2]: 1953

YFLHFLLFSRPQTQYI
Rank (after) [5]: 137 | Rank (before) [6]: 1458

HLLDKLRSNGISPFID
Rank (after) [13]: 461 | Rank (before) [14]: 2772

YAFTGHLHHYFAAKGIKM
Rank (after) [13]: 385 | Rank (before) [14]: 1428

KERLHQWKLALTQAANLSGW
Population [9]: 0.00376% | Rank (after) [13]: 111 | Rank (before) [14]: 178

TFLGPLYNALVQAGIP
Rank (after) [5]: 120 | Rank (before) [6]: 2553

DWFLSKLSQHILRHEK
P3_MAL Rank (after) [3]: 722 | P3_MAL Rank (before) [4]: 1886

AFLYTFLINLTHPTIH
Rank (after) [5]: 161 | Rank (before) [6]: 852

WLYERLVSLILRDTQV
Rank (after) [5]: 108 | Rank (before) [6]: 1426

PSEIRKQTGSLPKAFA
P3_MAL Rank (after) [10]: 579 | P3_MAL Rank (before) [11]: 2665

SFFWNKLRYILPAPNN
P3_MAL Rank (after) [10]: 596 | P3_MAL Rank (before) [11]: 3013

WF*ERLVSLILRDTKV
Population [12]: 0.00278%

PNLRTNVLHYLMRTKT
Rank (after) [13]: 171 | Rank (before) [14]: 2695

KLQEWRDALTAAANLSGW
P3_MAL Rank (after) [10]: 600 | P3_MAL Rank (before) [11]: 3631

NELVHVWSSKAHSPVG
P3_MAL Rank (after) [3]: 731 | P3_MAL Rank (before) [4]: 3294

NHSRNALTAAANLSGW
P3_MAL Rank (after) [1]: 263 | P3_MAL Rank (before) [2]: 3433

AFLYTFMINLTHPTTF
Rank (after) [5]: 126 | Rank (before) [6]: 1889

NQCRNALTAAANLKGW
Rank (after) [13]: 146 | Rank (before) [14]: 3327

WFLFTVRSATYTMSPA
P8_MAL Rank (after) [1]: 220 | P8_MAL Rank (before) [2]: 1338

LFLWASLKQLLRSANC
P8_MAL Rank (after) [10]: 661 | P8_MAL Rank (before) [11]: 2142

NQWRNALTAEANLSGW
Population [9]: 0.00413%

AFYGPLLSLILRDTKM
P8_MAL Rank (after) [10]: 641 | P8_MAL Rank (before) [11]: 1790

KLRAWRDALRNIANIF
Rank (after) [13]: 428 | Rank (before) [14]: 3626

RNFVAYLFQALANIGI
Population [12]: 0.00371%

FLNFRGLDVRNYFLGH
P8_MAL Rank (after) [7]: 560 | P8_MAL Rank (before) [8]: 1088

SLRNKLLSHLLEEFKS
Rank (after) [13]: 418 | Rank (before) [14]: 3066

KMQKWKDALYEAAKLG
P3_MAL Rank (after) [1]: 250 | P3_MAL Rank (before) [2]: 3687

RGFTSHLYHRIQRNSN
P3_MAL Rank (after) [10]: 605 | P3_MAL Rank (before) [11]: 2419

KERPFGAQRAEKWRTALT
Rank (after) [13]: 466 | Rank (before) [14]: 3611

AFFWAQLKRAGQSDD
P8_MAL Rank (after) [1]: 257 | P8_MAL Rank (before) [2]: 1607

PKLRTKVLKYQMRTKT
Rank (after) [13]: 426 | Rank (before) [14]: 2762

SSFCEGLWRLLELSTK
P3_MAL Rank (after) [1]: 234 | P3_MAL Rank (before) [2]: 3122

YFWHALKNALAVNNDV
Population [9]: 0.056% | Rank (after) [13]: 97 | Rank (before) [14]: 97

PNLRTKLLNSLMRTKT
P3_MAL Rank (after) [1]: 273 | P3_MAL Rank (before) [2]: 2682

PNLRTKVLNSLMSTKT
Rank (after) [13]: 477 | Rank (before) [14]: 2709

NQWRNALTAAANLSVC
P3_MAL Rank (after) [10]: 610 | P3_MAL Rank (before) [11]: 3370
